“Also recorded” adds a separate entry of the source. Read-outs that look alike come from different tables or passages of the source. Marks after values point to notes of the source that are not given here.
Legend:
Ptpn11^D61G/+ mice = experiment: Heart tissue immunoblot for SERCA2A, Troponin I, Troponin T; type: in vivo; details: postnatal dasatinib; NS mice
Description: Representative traces of cardiomyocyte dynamics for calcium transient traces (top) and their corresponding sarcomere leng shortening traces (bottom). FIG. 16b is a graph showing a summary of the data of relative calcium release (Rmag Ca^2+). FIG. 16c is a graph showing the fraction of sarcomere shortening (n=111˜162 cells from 3 mice for each group). FIG. 16d is an image showing heart tissue immunoblotted with anti-SERCA2A, Troponin I (tTnI), Troponin T (tTnT) and Tubulin antibodies. […] FIG. 16e is a graph showing SERCA2A expression. FIG. 16f is a graph showing Troponin I expression. FIG. 16g is a graph showing Troponin T. Expression was statistically assessed after normalization with tubulin (n=6 for each group).
Immunoprecipitation and Immunoblotting—Cells or heart tissue were lysed on ice in lysis buffer (25 mM Tris-HCl, pH 7.4, 136 mM NaCl, 1 mM CaCl2, 1 mM MgCl2, 1% Nonidet P-40, 1 mM Na3VO4, 10 mM NaF, 1 mM benzamidine, 1 mM PMSF, 1 μg/ml pepstatin A, 5 μg/ml aprotinin, and 5 μg/ml leupeptin). Cell or tissue lysates were incubated at 4° C. for 30 min and clarified by centrifugation at 14,000 rpm at 4° C. for 10 min. Protein concentration was determined using the BCA reagent according to the manufacturer's instructions (Pierce). For immunoprecipitations, 500 μg of lysate was incubated with 1 μg of indicated antibodies at 4° C. for overnight. […]

Ptpn11^Y279C/+ mice = experiment: Quantitative RT-PCR of heart RNA, NSML mice, postnatal dasatinib; type: in vivo
Method: FIG. 25, comprising FIGS. 25a-25f, is a panel of graphs showing the improvement in molecular markers of cardiomyopathy and fibrosis in NSML (Y279C/+) mice following dasatinib treatment. Total heart RNA was isolated from postnatal vehicle- or dasatinib-treated (0.1 mg/kg/day) WT and Ptpn11^Y279C/+ mice (P42). Fibrosis marker genes, Col1a2 (FIG. 25a) and Col3a1 (FIG. 25b), markers of cardiomyopathy ANP (FIG. 25c) and cardiac fetal genes, Myh6 (αMHC) (FIG. 25d), Myh7 (bMHC) (FIG. 25e), and Myh6/Myh7 ratio (FIG. 25f) were measured by quantitative RT-PCR (n=6 for each group). All data represent mean±SEM. *, p<0.05; **, p<0.01; ***, p<0.001. (Two-way ANOVA test).
RNA Extraction and Quantitative Real-Time PCR Analysis—RNA was isolated from mice heart using an RNeasy kit (Qiagen, CA) according to the manufacturer's instructions. A total of 1 μg RNA was reverse transcribed to generate cDNA using a reverse transcriptase PCR kit (Applied Biosystems, CA). Real-time quantitative PCR was carried out in triplicate using the Applied Biosystems 7500 Fast real-time PCR system and SYBR green gene expression master mix with following primer pairs.
The data presented in FIGS. 25a-25f represents dasatinib treatment starting at post-natal day 10 (P10) for 6 weeks (P42) in wild type (WT) and NSML (Ptpn11^Y279C/+) mice. Ptpn11^Y279C/+ were obtained from Dr. Kontaridis (Beth Israel Deaconess Hospital, Boston, Mass.) and bred as described (Marin, et al, J Clin. Invest., 121:1026-1043(2011)). Mice were treated with either vehicle or dasatinib at a dose of 0.1 mg/kg/day for 6 weeks […]. At the completion of the study, wild type and Ptpn11^Y279C/+ mice were sacrificed and total RNA from the hearts was isolated and qPCR was performed for the detection of mRNA expression for genes involved in the development of cardiomyopathy, Myh6 and Myh7 and the development of cardiac fibrosis, col1a2 and Col3a1.

[1] = test system: WT and Ptpn11^D61G/+ mice; details: for % EF (ejection fraction) / % FS (fractional shortening) / IVS, d (Intraventricular septum wall thickness, diastole) / IVS, s (Intraventricular septum wall thickness, systole) / LV vol, d (left ventricle volume, diastole) / LV vol, s (left ventricle volume, systole) / LVID, d (left ventricular internal dimension, diastole) / LVID, s (left ventricular internal dimension, systole) / LVPW, d (left ventricular posterior wall thickness, diastole) / LVPW, s (left ventricular posterior wall thickness, systole): n = 8, Mean ± SEM;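 as to all read-outs here: echocardiography in isoflurane-anesthetized mice, M-mode tracings averaged over three to six heartbeats, FS derived from diastolic and systolic LVID, vehicle-injected mice as control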
Method: Echocardiographic Studies—Cardiac dimensions and function were analyzed by echocardiography using a Vevo 770 console, Mice were lightly anesthetized with inhaled isoflurane (0.2% in O2). All measurements were obtained from three to six consecutive cardiac cycles, and the averaged values used for analysis. Interventricular septum wall (IVS), left ventricular internal dimension (LVID) and left ventricular posterior wall thickness (LVPW) in both end-diastolic (d), end-systolic (s) were measured from the and M-mode tracings. Diastolic measurements were performed using the leading-edge method of the American Society of Echocardiography. For TM-mode measurements, left ventricular end-diastolic volume (LV vol,d) and end-systolic volume (LV vol,s) were calculated. Ejection fraction percentage (EF) was calculated as [(LVvol,d−LVvol,s)/VLvol,d]×100, and fractional shortening percentage was calculated as [(LVID,d−LVID,s)/LVID,d]×100.
Animal Handling—Ptpn11^D61G/+ mice were provided from Dr. Benjamin Neel (University of Toronto, Toronto) and were genotyped as described previously^9. Briefly, Ptpn11^D61G/+ male mice were crossed with wild type C75BL/6×SV 129 female mice and their offspring were genotyped by PCR and digestion with AgeI for the D61G allele. Dasatinib (Biovision) was suspended in vehicle (1% DMSO in phosphate buffer saline), For prenatal treatment, dasatinib was injected i.p. (0.1 mg/kg body weight) into pregnant mice daily, beginning on gestational day 7.5 (E7.5) continuing (in nursing females) until postnatal day 9. Vehicle-injected mice served as control. Beginning at P10, dasatinib or vehicle alone was injected (i.p.) directly into pups daily, until 8-weeks after birth. For postnatal treatment, dasatinib was injected (i.p.) into pups at P10, until 6-weeks after birth; injection was discontinued for 2-weeks.
Echocardiography—Mice were anesthetized in a sealed plastic chamber with 1% isofurane in oxygen until immobile, and then were transferred onto a heated procedure board (37° C.). Animal were kept anesthetized with 1% isoflurane supplied by a nose cone connected to the isoflurane vaporizer during the entire procedure. The scan head was placed on the chest of the mouse and stable image signals (both B mode and M mode) were acquired and data analyzed with Vevo 770 (VisualSonics). Systolic and distolic left ventricle peripheral wall thickness, chamber diameter and interventricular wall thickness were measured with M mode image. Percentage of ejection fraction (EF) and fractional shortening (FS) were calculated.

[2] = postnatal 0.1 mg/kg/day from P10 for 6 weeks, Ptpn11Y279C/+ mice
[3] = prenatal 0.1 mg/kg i.p. daily from E7.5, Ptpn11D61G/+ mice, P42
[4] = prenatal 0.1 mg/kg i.p. daily from E7.5, WT mice, P42
[5] = prenatal 0.1 mg/kg i.p. daily from E7.5 continued to P56, Ptpn11D61G/+ mice, P56
[6] = prenatal 0.1 mg/kg i.p. daily from E7.5 continued to P56, WT mice, P56

## Cc1nc(Nc2ncc(C(=O)Nc3c(C)cccc3Cl)s2)cc(N2CCN(CCO)CC2)n1.O [Dasatinib, N-(2-chloro-6-methylphenyl)-2-[[6-[4-(2-hydroxyethyl)-1-piperazinyl]-2-methyl-4-pyrimidinyl]amino]-5-thiazole carboxamide monohydrate]
Ptpn11^D61G/+ mice
  SERCA2A protein expression in cardiac tissue: completely normalized
  TnT and TnI expression levels in heart: returned to those equivalent to vehicle-treated wild type mice
Ptpn11^Y279C/+ mice; 0.1 mg/kg/day, NSML (Y279C/+) mice
  molecular markers of cardiomyopathy and fibrosis: improvement
Ptpn11^Y279C/+ mice; [2]
  expression of ANP, Myh6 and Myh7: complete restoration back to wild type levels
  ratio of Myh6/Myh7: restored to wild type levels
[1]; [3]
  % EF (ejection fraction): 62.62 ± 2.75 %
  % FS (fractional shortening): 34.29 ± 2.09 %
  IVS, d (Intraventricular septum wall thickness, diastole): 0.65 ± 0.06 mm
  IVS, s (Intraventricular septum wall thickness, systole): 0.97 ± 0.10 mm
  LV vol, d (left ventricle volume, diastole): 60.93 ± 3.75 mm^3
  LV vol, s (left ventricle volume, systole): 24.21 ± 1.56 mm^3
  LVID, d (left ventricular internal dimension, diastole): 3.61 ± 0.12 mm
  LVID, s (left ventricular internal dimension, systole): 2.32 ± 0.12 mm
  LVPW, d (left ventricular posterior wall thickness, diastole): 0.70 ± 0.04 mm
  LVPW, s (left ventricular posterior wall thickness, systole): 1.12 ± 0.07 mm
[1]; [4]
  % EF (ejection fraction): 64.24 ± 2.52%
  % FS (fractional shortening): 34.70 ± 1.82%
  IVS, d (Intraventricular septum wall thickness, diastole): 0.67 ± 0.04 mm
  IVS, s (Intraventricular septum wall thickness, systole): 1.08 ± 0.09 mm
  LV vol, d (left ventricle volume, diastole): 67.51 ± 2.54 mm^3
  LV vol, s (left ventricle volume, systole): 22.26 ± 1.95 mm^3
  LVID, d (left ventricular internal dimension, diastole): 3.93 ± 0.08 mm
  LVID, s (left ventricular internal dimension, systole): 2.49 ± 0.09 mm
  LVPW, d (left ventricular posterior wall thickness, diastole): 0.76 ± 0.05 mm
  LVPW, s (left ventricular posterior wall thickness, systole): 1.13 ± 0.04 mm
[1]; [5]
  % EF (ejection fraction): 51.83 ± 1.60%
  % FS (fractional shortening): 26.22 ± 1.01%
  IVS, d (Intraventricular septum wall thickness, diastole): 0.70 ± 0.03 mm
  IVS, s (Intraventricular septum wall thickness, systole): 1.02 ± 0.05 mm
  LV vol, d (left ventricle volume, diastole): 73.00 ± 3.42 mm^3
  LV vol, s (left ventricle volume, systole): 37.43 ± 2.08 mm^3
  LVID, d (left ventricular internal dimension, diastole): 4.06 ± 0.11 mm
  LVID, s (left ventricular internal dimension, systole): 3.08 ± 0.07 mm
  LVPW, d (left ventricular posterior wall thickness, diastole): 0.68 ± 0.02 mm
  LVPW, s (left ventricular posterior wall thickness, systole): 0.93 ± 0.06 mm
[1]; [6]
  % EF (ejection fraction): 50.96 ± 2.38 %
  % FS (fractional shortening): 25.84 ± 1.47 %
  IVS, d (Intraventricular septum wall thickness, diastole): 0.69 ± 0.04 mm
  IVS, s (Intraventricular septum wall thickness, systole): 1.07 ± 0.05 mm
  LV vol, d (left ventricle volume, diastole): 79.32 ± 1.22 mm^3
  LV vol, s (left ventricle volume, systole): 40.34 ± 1.60*** mm^3
  LVID, d (left ventricular internal dimension, diastole): 4.21 ± 0.07 mm
  LVID, s (left ventricular internal dimension, systole): 3.04 ± 0.10 mm
  LVPW, d (left ventricular posterior wall thickness, diastole): 0.71 ± 0.04 mm
  LVPW, s (left ventricular posterior wall thickness, systole): 0.95 ± 0.05 mm
[1]; prenatal 0.1 mg/kg, NS mice, P42, monohydrate
  cardiac function (EF and FS): improves cardiac function; also recorded: completely restored to wild type parameters; also recorded: complete restoration of cardiac function
[1]; prenatal regimen continued an additional 2 weeks to P56, wild type and NS mice
  cardiac failure on continued administration: induced cardiac failure

— US10471059B2, “Compositions and methods of using tyrosine kinase inhibitors” (YALE UNIVERSITY, priority 2015, dated 2019)
